Assay results reported in the supplement of paper PMC11061612.

Columns and labels:
Olaparib = compound: O=C(c1cc(Cc2n[nH]c(=O)c3ccccc23)ccc1F)N1CCN(C(=O)C2CC2)CC1 [Olaparib]; details: max 10 µM
Procedure, shortened: (§1)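 Following 24 hours at 37°C and 5% CO2, cancer cell lines in 1536-well plates with 7.5 μl DMEM/F12 or RPMI and 10% FBS were dosed for 72 hours, final DMSO typically being 0.2%. CellTiter-Glo 2.0 luminescence, scaled between blank-well and DMSO-well means, gave the viability readout. Dose responses were fitted to a two-parameter logistic curve with a non-linear mixed effects model, and the single-agent IC50 was derived from this fit.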

AZD5153 = compound: COc1nnc2ccc(N3CCC(c4ccc(OCCN5CCN(C)C(=O)[C@H]5C)cc4)CC3)nn12 [AZD5153]; details: max 1 µM
Procedure, shortened: as §1

Doxorubicin = compound: COc1cccc2c1C(=O)c1c(O)c3c(c(O)c1C2=O)C[C@@](O)(C(=O)CO)C[C@@H]3O[C@H]1C[C@H](N)[C@H](O)[C@H](C)O1 [Doxorubicin]; details: max 1 µM
Procedure, shortened: as §1

AZD0156 = compound: CN(C)CCCOc1ccc(-c2ccc3ncc4c(c3c2)n(C2CCOCC2)c(=O)n4C)cn1 [AZD0156]; details: max 3 µM
Procedure, shortened: as §1

Selumetinib = compound: Cn1cnc2c(F)c(Nc3ccc(Br)cc3Cl)c(C(=O)NOCCO)cc21 [Selumetinib]; details: max 10 µM
Procedure, shortened: as §1

SN-38 = compound: CCc1c2c(nc3ccc(O)cc13)-c1cc3c(c(=O)n1C2)COC(=O)[C@]3(O)CC [SN-38]; details: max 0.3 µM
Procedure, shortened: as §1

SG3199 = compound: CC1=CN2[C@@H](C1)C=NC3=CC(=C(C=C3C2=O)OC)OCCCCCOC4=C(C=C5C(=C4)N=C[C@@H]6CC(=CN6C5=O)C)OC [SG3199]; details: max 0.001 µM
Procedure, shortened: as §1

Crizotinib = compound: C[C@@H](Oc1cc(-c2cnn(C3CCNCC3)c2)cnc1N)c1c(Cl)ccc(F)c1Cl [Crizotinib]; details: max 10 µM
Procedure, shortened: as §1

AZD6738 = compound: C[C@@H]1COCCN1C2=NC(=NC(=C2)C3(CC3)[S@](=N)(=O)C)C4=C5C=CNC5=NC=C4 [AZD6738]; details: max 10 µM
Procedure, shortened: as §1

AZD2811 = compound: CCN(CCO)CCCOc1ccc2c(Nc3cc(CC(=O)Nc4cccc(F)c4)[nH]n3)ncnc2c1 [AZD2811]; details: max 1 µM
Procedure, shortened: as §1

AZD7648 = compound: Cc1cc2ncnn2cc1Nc1ncc2c(n1)n(C1CCOCC1)c(=O)n2C [AZD7648]; details: max 10 µM
Procedure, shortened: as §1

AZD1390 = compound: CC(C)n1c(=O)n(C)c2cnc3cc(F)c(-c4ccc(OCCCN5CCCCC5)nc4)cc3c21 [AZD1390]; details: max 0.3 µM
Procedure, shortened: as §1

Taselisib = compound: Cc1nc(-c2cn3c(n2)-c2ccc(-c4cnn(C(C)(C)C(N)=O)c4)cc2OCC3)n(C(C)C)n1 [Taselisib]; details: max 10 µM
Procedure, shortened: as §1

Capivasertib = compound: C1CN(CCC1(C(=O)N[C@@H](CCO)C2=CC=C(C=C2)Cl)N)C3=NC=NC4=C3C=CN4 [Capivasertib]; details: max 10 µM
Procedure, shortened: as §1

AZD8186 = compound: C[C@@H](Nc1cc(F)cc(F)c1)c1cc(C(=O)N(C)C)cc2c(=O)cc(N3CCOCC3)oc12 [AZD8186]; details: max 3 µM
Procedure, shortened: as §1

AZD4320 = compound: CN(CC[C@H](CSC1=CC=CC=C1)NC2=C(C=C(C=C2)S(=O)(=O)NC(=O)C3=CC=C(C=C3)N4CCC(CC4)[C@H](C5=CC=CC=C5C6=CC=C(C=C6)Cl)O)S(=O)(=O)C(F)(F)F)CCO [AZD4320]; details: max 1 µM
Procedure, shortened: as §1

Venetoclax = compound: CC1(C)CCC(CN2CCN(c3ccc(C(=O)NS(=O)(=O)c4ccc(NCC5CCOCC5)c([N+](=O)[O-])c4)c(Oc4cnc5[nH]ccc5c4)c3)CC2)=C(c2ccc(Cl)cc2)C1 [Venetoclax]; details: max 1 µM
Procedure, shortened: as §1

AZD5991 = compound: Cc1c2c(nn1C)CSCc1cc(n(C)n1)CSc1cc(c3ccccc3c1)OCCCc1c(C(=O)O)n(C)c3c-2c(Cl)ccc13 [AZD5991]; details: max 1 µM
Procedure, shortened: as §1

Lapatinib = compound: CS(=O)(=O)CCNCc1ccc(-c2ccc3ncnc(Nc4ccc(OCc5cccc(F)c5)c(Cl)c4)c3c2)o1 [Lapatinib]; details: max 10 µM
Procedure, shortened: as §1

Trametinib = compound: CC(=O)Nc1cccc(-n2c(=O)n(C3CC3)c(=O)c3c(Nc4ccc(I)cc4F)n(C)c(=O)c(C)c32)c1 [Trametinib]; details: max 1 µM
Procedure, shortened: as §1

Alisertib = compound: COc1cc(Nc2ncc3c(n2)-c2ccc(Cl)cc2C(c2c(F)cccc2OC)=NC3)ccc1C(=O)O [Alisertib]; details: max 10 µM
Procedure, shortened: as §1

Gefitinib = compound: COc1cc2ncnc(Nc3ccc(F)c(Cl)c3)c2cc1OCCCN1CCOCC1 [Gefitinib]; details: max 10 µM
Procedure, shortened: as §1

Savolitinib = compound: C[C@@H](c1ccc2nccn2c1)n1nnc2ncc(-c3cnn(C)c3)nc21 [Savolitinib]; details: max 1 µM
Procedure, shortened: as §1

Palbociclib = compound: CC(=O)c1c(C)c2cnc(Nc3ccc(N4CCNCC4)cn3)nc2n(C2CCCC2)c1=O [Palbociclib]; details: max 10 µM
Procedure, shortened: as §1

Dasatinib = compound: CC1=C(C(=CC=C1)Cl)NC(=O)C2=CN=C(S2)NC3=CC(=NC(=N3)C)N4CCN(CC4)CCO [Dasatinib]; details: max 2 µM
Procedure, shortened: as §1

Prexasertib = compound: COc1cccc(OCCCN)c1-c1cc(Nc2cnc(C#N)cn2)n[nH]1 [Prexasertib]; details: max 1 µM
Procedure, shortened: as §1

AZD1775 = compound: C=CCn1c(=O)c2cnc(Nc3ccc(N4CCN(C)CC4)cc3)nc2n1-c1cccc(C(C)(C)O)n1 [AZD1775]; details: max 3 µM
Procedure, shortened: as §1

Cell Line | IC50, cell viability 72 h (Olaparib) [nM] | IC50, cell viability 72 h (AZD5153) [nM] | IC50, cell viability 72 h (Doxorubicin) [nM] | IC50, cell viability 72 h (AZD0156) [nM] | IC50, cell viability 72 h (Selumetinib) [nM] | IC50, cell viability 72 h (SN-38) [nM] | IC50, cell viability 72 h (SG3199) [nM] | IC50, cell viability 72 h (Crizotinib) [nM] | IC50, cell viability 72 h (AZD6738) [nM] | IC50, cell viability 72 h (AZD2811) [nM] | IC50, cell viability 72 h (AZD7648) [nM] | IC50, cell viability 72 h (AZD1390) [nM] | IC50, cell viability 72 h (Taselisib) [nM] | IC50, cell viability 72 h (Capivasertib) [nM] | IC50, cell viability 72 h (AZD8186) [nM] | IC50, cell viability 72 h (AZD4320) [nM] | IC50, cell viability 72 h (Venetoclax) [nM] | IC50, cell viability 72 h (AZD5991) [nM] | IC50, cell viability 72 h (Lapatinib) [nM] | IC50, cell viability 72 h (Trametinib) [nM] | IC50, cell viability 72 h (Alisertib) [nM] | IC50, cell viability 72 h (Gefitinib) [nM] | IC50, cell viability 72 h (Savolitinib) [nM] | IC50, cell viability 72 h (Palbociclib) [nM] | IC50, cell viability 72 h (Dasatinib) [nM] | IC50, cell viability 72 h (Prexasertib) [nM] | IC50, cell viability 72 h (AZD1775) [nM]
COR-L311 (Small Cell Lung Carcinoma) | > 10000 | 175 | 685 | > 3000 | > 10000 | 3.07 | > 1 | 2970 | > 10000 | 75.4 | > 10000 | > 300 | 1610 | 3020 | > 3000 | 1.92 | 208 | > 1000 | > 10000 | > 1000 | 1510 | > 10000 | > 1000 | > 10000 | > 2000 | 107 | 910
GI-ME-N (Neuroblastoma) | > 10000 | > 1000 | > 1000 | > 3000 | > 10000 | > 300 | > 1 | > 10000 | > 10000 | > 1000 | > 10000 | > 300 | > 10000 | > 10000 | > 3000 | > 1000 | > 1000 | > 1000 | > 10000 | > 1000 | > 10000 | > 10000 | > 1000 | > 10000 | > 2000 | 731 | 2220
Hs-445 (Non-Cancerous) | > 10000 | > 1000 | 146 | > 3000 | > 10000 | 3.33 | > 1 | > 10000 | 2090 | > 1000 | > 10000 | > 300 | 9180 | 3880 | > 3000 | 224 | > 1000 | 213 | > 10000 | > 1000 | > 10000 | > 10000 | > 1000 | > 10000 | > 2000 | 3.9 | 134
JSC-1 (B-Cell Non-Hodgkin's Lymphoma) | > 10000 | 66.7 | 120 | > 3000 | 4680 | 2.11 | > 1 | 6190 | 1860 | > 1000 | > 10000 | > 300 | > 10000 | 7450 | > 3000 | > 1000 | > 1000 | 33.4 | > 10000 | 260 | 7110 | > 10000 | > 1000 | 5840 | > 2000 | 5.24 | 328
MDST8 (Colorectal Carcinoma) | > 10000 | > 1000 | 224 | > 3000 | 1150 | 15.6 | > 1 | > 10000 | 7450 | > 1000 | > 10000 | > 300 | > 10000 | > 10000 | > 3000 | 890 | > 1000 | > 1000 | > 10000 | 19.9 | > 10000 | > 10000 | > 1000 | > 10000 | > 2000 | 25 | 875
NCI-H1650 (Lung Adenocarcinoma) | > 10000 | > 1000 | > 1000 | > 3000 | > 10000 | > 300 | > 1 | > 10000 | > 10000 | > 1000 | > 10000 | > 300 | > 10000 | > 10000 | > 3000 | > 1000 | > 1000 | > 1000 | > 10000 | > 1000 | > 10000 | > 10000 | > 1000 | > 10000 | > 2000 | 472 | > 3000
NCI-H1693 (Lung Adenocarcinoma) | > 10000 | > 1000 | > 1000 | > 3000 | > 10000 | 87.2 | > 1 | > 10000 | > 10000 | > 1000 | > 10000 | > 300 | > 10000 | > 10000 | > 3000 | > 1000 | > 1000 | > 1000 | > 10000 | > 1000 | > 10000 | > 10000 | > 1000 | > 10000 | > 2000 | > 1000 | > 3000
NCI-H2141 (Small Cell Lung Carcinoma) | > 10000 | > 1000 | > 1000 | > 3000 | > 10000 | > 300 | > 1 | > 10000 | > 10000 | > 1000 | > 10000 | > 300 | > 10000 | > 10000 | > 3000 | 307 | > 1000 | > 1000 | > 10000 | > 1000 | > 10000 | > 10000 | > 1000 | > 10000 | > 2000 | 458 | 2200
